Results reported in patent US20040219508A1, “Screening, quantitation and identification of active ingredients in natural products” (Sloan-Kettering Institute for Cancer Research, priority 2002, published 2004).

Legend:
[1] = cited from earlier work
[2] = cited from earlier work; remark: listed apart in the source
HepG2 hepatoma cells = settings: continuous exposure, 1 to 50 μM; cited from earlier work
MKN-74 = assay: MTT growth assay; type: cell-based, human; settings: 10 μg/ml berberine
Method: The cells were treated on day 0 with huanglian and then cell viability in the continued presence or absence (control) of drug was determined for the subsequent 5 days (days 1 to 5) by the MTT (3-(4,5-dimethythiazol-2-yl)-2-5-diphenyltetratrazolium bromide) assay. In this colorometric assay the absorbance of converted dye is measured at a wavelength (OD) of 550 nm and the increased absorbance is directly proportional to cell viability.
Since berberine constitutes the major fraction of huanglian (25%), a 10 μg/ml solution of berberine was tested to determine the degree to which it inhibited proliferation of the MKN-74 cells.

[3] = dogs; cited from earlier work
[4] = human, in vivo
Method: Pharmacokinetic studies (PK). Bloods for pharmacokinetic studies (PK) will be performed on days 1, 2, 8, 15 and 29 of treatment. Repeated bloods for PK will be drawn on day #1 only, before the daily dose (time=0), 1 hour after, and 2,4, 6, 8 and 24 hours after the first dose of huanglian. On all other days, a single PK blood sample will be drawn, to measure steady state levels of the drug. For these studies 10 ml of heparinized blood (green stopper vacutainer tube) will be collected. Plasma samples (PK) will be sent for pharmacokinetic measurements of huanglian peaks.
Pharmacokinetic (PK) and surrogate marker studies: Since berberine represents approximately 50% of the herb, PK measurements were being conducted of berberine by HPLC. However, only very low levels of berberine (<50 ng/ml) have been detected in the plasma of any patient on the study. Also being tested is plasma collected from patients on day #15 of therapy to determine if the patient's own plasma will inhibit cancer cell growth of the gastric cancer cell line MKN-74 ex vivo, as determined by SRB assays. For these studies, the patient's plasma is concentrated and the MKN-74 cells are exposed to the patient's own plasma for either 2 (II) or 4 (IV) days before the tumor cells are assayed for growth inhibition. As shown for the patient treated in cohort 3 (see graph below), the patient's own pretreatment plasma (day 0) was capable of inhibiting MKN-74 cell growth, even though the patient had been off all chemotherapy for at least 4 weeks. Three separate samples were then drawn on day 15 of treatment at 8:30 AM, 9:30 AM, and 12:30 PM. […] The last lanes show the positive control of media “spiked” with huanglian (HL) at a concentration of 20 μg/ml and exposed to MKN-74 cells for both 2 and 4 days. This degree of growth suppression confirms the activity of the herb from the capsules.

[5] = Metabolism by human liver S9 microsomes, HPLC/UV; type: in vitro ADME; settings: extract 3 μ/ml, S9 1 mg/ml with NADPH
Method: Since oral drugs are metabolised by a “first-pass” through the liver, we also elected to determine whether huanglian would be metabolised in vitro by human liver S9 microsomes (Gentest, MA). This assay creates metabolites of a drug that are equivalent to those formed on a “first-pass” through the liver. For these studies, the huanglian extract, at a final concentration of 3 μ/ml, was exposed to human liver S9 microsomes at 1 mg/ml with NADPH. The microsomal extracts obtained in this assay were then analyzed by HPLC and UV spectroscopy.

MKN-74 cells = assay: Flow cytometry with MPM-2 labeling after nocodazole synchronisation; type: cell-based, human
Excerpt: Activation of cyclin B1 associated cdc2 kinase by mitotic inhibitors including paclitaxel induces an increased accumulation of cells into the M phase of the cell cycle (12). Thus, a decrease in cyclin B1 associated kinase activity should prevent cells from entering M and results in an accumulation of cells in G2. It should also force cells in M to exit M and continue to cell cycle. Experiments were designed to test this in the MKN-74 cells by flow cytometry and labeling of cells with the MPM-2 antibody which identifies cells in mitosis. This is difficult to assess in asynchronous cells. So as to better document accumulation of cell in G2, experiments were designed to first synchronise the cells with nocodazole in the M phase (e.g. mitotic block).

Row | SMILES | clinical effect at higher plasma concentration ([1]; berberine plasma concentrations >0.11 mg/L) | side effects ([1]; by mouth, 1.2 gm/d for two weeks, 56 patients) | facial flushing ([2]; 12 patients) [patients] | transient nausea ([2]; 12 patients) [patients] | QTc interval ([2]; after berberine, returned to baseline after 24 hours) | hemodynamic effects ([2]; i.v. 0.2 mg/kg/min over 30 minutes) | ventricular tachycardia with torsades de pointes morphology, patients ([2]; within 1-20 hours of the infusion) | tumor cell growth (HepG2 hepatoma cells) | inhibition of cell proliferation (MKN-74) | cardiovascular effects [3] | Plasma B [4] [µg/mL] | berberine in plasma by HPLC [4] | berberine level in plasma [4] [ng/mL] | change of HPLC peaks after liver microsome treatment [5] | cells remaining in M (MKN-74 cells; nocodazole for 12 hours (NOC12)) [%] | cells remaining in M (MKN-74 cells; nocodazole, then drug free medium 24 hours (NOC12→(−)24)) [%]
1 | COc1ccc2cc3[n+](cc2c1OC)CCc1cc2c(cc1-3)OCO2 [berberine] | more significant increase in LVEF and decrease in the frequency and complexity of ventricular premature beats | no side effects or arrythmogenesis | 2 | 2 | consistently elevated in all 12 patients | decrease in pulmonary and systemic vascular resistance and an increase in cardiac index and ejection fraction | Four of 12 | inhibits tumor cell growth in a dose-dependent manner | not able to inhibit cell proliferation to the same degree as either the huanglian or its metabolites | positive inotropic effects and lower peripheral vascular resistance | 0 to 0.024 | non-measurable by HPLC | < 50 | decreased only slightly | – | –
2 | COC(=O)Nc1nc2ccc(C(=O)c3cccs3)cc2[nH]1 [nocodazole] | – | – | – | – | – | – | – | – | – | – | – | – | – | – | 41 | 16
